ChEMBL document CHEMBL5316354, “From Natural Sources to Synthetic Derivatives: The Allyl Motif as a Powerful Tool for Fragment-Based Design in Cancer Treatment” (J Med Chem, 2023)

Columns and labels:
MCF7 [1] = assay: Antitumor activity against human MCF7 cells assessed as cell growth inhibition incubated for 48 hrs; format: functional, cell-based; details: MCF7, 48 h
BGC-823 [2] = assay: Antitumor activity against human BGC-823 cells assessed as cell growth inhibition; format: functional, cell-based
SGC-7901 = assay: Antitumor activity against human SGC-7901 cells assessed as cell growth inhibition; format: functional, cell-based
PC-3 = assay: Antitumor activity against human PC-3 cells assessed as cell growth inhibition; format: functional, cell-based
DU-145 = assay: Antitumor activity against human DU-145 cells assessed as cell growth inhibition; format: functional, cell-based
MCF7 [3] = assay: Antitumor activity against human MCF7 cells assessed as cell growth inhibition; format: functional, cell-based
HeLa = assay: Antitumor activity against human HeLa cells assessed as cell growth inhibition; format: functional, cell-based
SW480 = assay: Antitumor activity against human SW480 cells assessed as inhibition of cell growth incubated for 24 to 48 hrs; format: functional, cell-based
SW-620 = assay: Antitumor activity against human SW620 cells assessed as cell growth inhibition; format: functional, cell-based
NCI-H23 = assay: Antitumor activity against human NCI-H23 cells assessed as cell growth inhibition; format: functional, cell-based
MCF7 [4] = assay: Antitumor activity against human MCF7 expressing HER-2 cells assessed as cell growth inhibition; format: functional, cell-based
MCF7 [5] = assay: Antitumor activity against human MCF7 cells assessed as decrease in cell viability; format: functional, cell-based
BGC-823 [6] = assay: Antitumor activity against human BGC-823 cells xenografted in BALB/c nude mouse assessed as tumor growth inhibition at 30 mg/kg, ip administered for 32 days relative to control; format: functional; details: BGC-823, 768 h, time 32 day
BGC-823 [7] = assay: Antitumor activity against human BGC-823 cells xenografted in BALB/c nude mouse assessed as tumor growth inhibition at 40 mg/kg, ip administered for 32 days relative to control; format: functional; details: BGC-823, 768 h, time 32 day
BGC-823 [8] = assay: Antitumor activity against human BGC-823 cells xenografted in BALB/c nude mouse assessed as tumor growth inhibition at 20 mg/kg, ip administered for 32 days relative to control; format: functional; details: BGC-823, 768 h, time 32 day
Ca9-22 [9] = assay: Antitumor activity against human Ca9-22 cells assessed as cellular proliferation at 3 uM; format: functional
MG-63 = assay: Antiproliferative activity against human MG-63 cells assessed as growth inhibition by MTT assay; format: functional
Ca9-22 [10] = assay: Antitumor activity against human Ca9-22 cells assessed as cellular proliferation at 30 uM; format: functional
MDA-MB-231 [11] = assay: Antitumor activity against human MDA-MB-231 cells assessed as cell viability at 50 uM relative to control; format: functional; details: read-out: Activity
Rattus norvegicus [12] = assay: Immunomodulatory activity in testosterone propionate induced benign prostatic hyperplasia Wistar rat model assessed as reduction in serum testosterone level at 50 mg/kg, po relative to control; format: functional
Rattus norvegicus [13] = assay: Immunomodulatory activity in testosterone propionate induced benign prostatic hyperplasia Wistar rat model assessed as reduction in prostate weight at 50 mg/kg, po relative to control; format: functional
Rattus norvegicus [14] = assay: Immunomodulatory activity in testosterone propionate induced benign prostatic hyperplasia Wistar rat model assessed as reduction in DHT level at 50 mg/kg, po relative to control; format: functional
MCF7 [15] = assay: Antitumor activity against human MCF7 cells assessed as inhibition of cell proliferation; format: functional, cell-based
MDA-MB-231 [16] = assay: Antitumor activity against human MDA-MB-231 cells assessed as cell viability at 0.5 uM relative to control; format: functional; details: read-out: Activity
MCF7 [17] = assay: Antitumor activity against human MCF7 cells assessed as inhibition of cell proliferation in the presence of 1mM of eugenol; format: functional, cell-based
HepG2 [18] = assay: Cytotoxicity against human HepG2 cells; format: functional
HepG2 [19] = assay: Antitumor activity against human HepG2 cells assessed as reduction in cell growth; format: functional, cell-based
SK-BR-3 [20] = assay: Antitumor activity against human SK-BR-3 cells assessed as inhibition of cell proliferation at 60 uM relative to control; format: functional
MDA-MB-231 [21] = assay: Antitumor activity against human MDA-MB-231 cells assessed as inhibition of cell proliferation at 40 uM relative to control; format: functional
SK-BR-3 [22] = assay: Antitumor activity against human SK-BR-3 cells assessed as inhibition of cell proliferation at 40 uM relative to control; format: functional
MDA-MB-231 [23] = assay: Antitumor activity against human MDA-MB-231 cells assessed as inhibition of cell proliferation at 60 uM relative to control; format: functional
Rattus norvegicus [24] = assay: Immunomodulatory activity in testosterone propionate induced benign prostatic hyperplasia Wistar rat model assessed as reduction in prostate weight at 5 mg/kg, po relative to control; format: functional
Rattus norvegicus [25] = assay: Immunomodulatory activity in testosterone propionate induced benign prostatic hyperplasia Wistar rat model assessed as reduction in DHT level at 5 mg/kg, po relative to control; format: functional
Rattus norvegicus [26] = assay: Immunomodulatory activity in testosterone propionate induced benign prostatic hyperplasia Wistar rat model assessed as reduction in serum testosterone level at 5 mg/kg, po relative to control; format: functional
SK-BR-3 [27] = assay: Antitumor activity against human SK-BR-3 cells assessed as cell growth inhibition; format: functional, cell-based
HL-60 = assay: Antitumor activity against human HL-60 cells assessed as cell growth inhibition; format: functional, cell-based
NCI-H226 = assay: Antitumor activity against human NCI-H226 cells assessed as cell growth inhibition; format: functional, cell-based
[28] = Antitumor activity against human Osteosarcoma cells assessed as increase in intracellular calcium concentration; format: functional, cell-based; details: Osteosarcoma cell
[29] = Antitumor activity against human OC2 cells assessed as increase in cell proliferation at 10 uM relative to control; format: functional

Compound: C/C=C/c1ccc(O)c(OC)c1
- IC50 (MCF7 [1]): 11.4 µM

Compound: C=CCc1cc(/C=C2\CC/C(=C\c3ccc(O)c(CC=C)c3)C2=O)ccc1O
- IC50 (BGC-823 [2]): 7.1 µM
- IC50 (SGC-7901): 6.9 µM

Compound: C=CCOc1cccc2c1C(=O)C=C(C)C2=O
- IC50 (PC-3): 32.2 µM

Compound: Cn1[se]c2ccccc2c1=O
- IC50 (DU-145): 30.2 µM
- IC50 (MCF7 [3]): 32.7 µM

Compound: CCCCn1[se]c2ccccc2c1=O
- IC50 (DU-145): 28 µM
- IC50 (MCF7 [3]): 13.8 µM

Compound: CC(C)CCn1[se]c2ccccc2c1=O
- IC50 (MCF7 [3]): 29 µM

Compound: O=c1c2ccccc2[se]n1C1CCCCC1
- IC50 (DU-145): 5.7 µM
- IC50 (MCF7 [3]): 7.3 µM

Compound: CCC[C@@H](Cc1c[nH]c2ccccc12)NS(=O)(=O)c1c(C(C)C)cc(C(C)C)cc1C(C)C
- IC50 (HeLa): 30.8 µM

Compound: C=CCc1cc(/C=C2\CN(Cc3ccccc3)C/C(=C\c3ccc(O)c(CC=C)c3)C2=O)ccc1O
- IC50 (BGC-823 [2]): 6.9 µM
- IC50 (SGC-7901): 6 µM

Compound: C=CCSC[C@H](NC(=O)C(C)c1ccc2cc(OC)ccc2c1)C(=O)OCC (stereo partly drawn)
- IC50 (SW480): 31 µM

Compound: C=CCc1cccc(/C=N/NC(=O)Cn2cnc3ccc([N+](=O)[O-])cc3c2=O)c1O
- IC50 (PC-3): 0.07 µM
- IC50 (SW-620): 0.07 µM
- IC50 (NCI-H23): 0.03 µM

Compound: C=CCNC(=S)NC(=O)c1ccccc1
- IC50 (MCF7 [4]): 0.6 µM
- IC50 (MCF7 [3]): 1.5 µM

Compound: C=CCSCC(N)C(=O)OOc1ccc(CNC(=O)CCCCCCCC)cc1OC (stereo not drawn)
- IC50 (MCF7 [5]): 66 µM

Compound: C=CCSC[C@H](NC(=O)Cc1ccccc1Nc1c(Cl)cccc1Cl)C(=O)OCC
- IC50 (SW480): 31 µM

Compound: C=CCSC[C@H](NC(=O)c1ccccc1O)C(=O)OCC
- IC50 (SW480): 31 µM

Compound: C=CCSSSCC=C [ALLITRIDIN]
- inhibition in vivo at 30 mg/kg (BGC-823 [6]): 50%
- inhibition in vivo at 40 mg/kg (BGC-823 [7]): 57%
- inhibition in vivo at 20 mg/kg (BGC-823 [8]): 38%

Compound: C/C=C/c1ccc(OC)cc1 [ANETHOLE]
- Activity (Ca9-22 [9]): 42.7%
- GI50 (MG-63): 60.2 µM
- Activity (Ca9-22 [10]): 5.2%
- viability at 50 µM (MDA-MB-231 [11]): 60%

Compound: C=CCSCC=C [DIALLYL SULFIDE]
- inhibition in vivo at 50 mg/kg (Rattus norvegicus [12]): 68%
- inhibition in vivo at 50 mg/kg (Rattus norvegicus [13]): 60%
- inhibition in vivo at 50 mg/kg (Rattus norvegicus [14]): 75%

Compound: COc1cccc2c1C(=O)c1c(O)c3c(c(O)c1C2=O)C[C@@](O)(C(=O)CO)C[C@@H]3O[C@H]1C[C@H](N)[C@H](O)[C@H](C)O1 [DOXORUBICIN]
- IC50 (MCF7 [15]): 0.5 µM
- IC50 (BGC-823 [2]): 38.2 µM
- IC50 (SGC-7901): 36.9 µM
- viability at 0.5 µM (MDA-MB-231 [16]): 40%
- IC50 (MCF7 [17]): 0.088 µM

Compound: C=C1[C@H](CO)[C@@H](O)C[C@@H]1n1cnc2c(=O)[nH]c(N)nc21 [ENTECAVIR ANHYDROUS]
- CC50 (HepG2 [18]): 30 µM
- EC50 (HepG2 [19]): 0.00375 µM

Compound: C=CCc1ccc(O)c(OC)c1 [EUGENOL]
- IC50 (MCF7 [1]): > 1500 µM
- inhibition at 60 µM (SK-BR-3 [20]): > 90%
- inhibition at 40 µM (MDA-MB-231 [21]): > 90%
- inhibition at 40 µM (SK-BR-3 [22]): > 90%
- inhibition at 60 µM (MDA-MB-231 [23]): > 90%

Compound: CC(C)(C)NC(=O)[C@H]1CC[C@H]2[C@@H]3CC[C@H]4NC(=O)C=C[C@]4(C)[C@H]3CC[C@]12C [FINASTERIDE]
- inhibition in vivo at 5 mg/kg (Rattus norvegicus [24]): 53%
- inhibition in vivo at 5 mg/kg (Rattus norvegicus [25]): 52%
- inhibition in vivo at 5 mg/kg (Rattus norvegicus [26]): 55%

Compound: COC1=C2C[C@@H](C)C[C@H](OC)[C@H](O)[C@@H](C)/C=C(\C)[C@H](OC(N)=O)[C@@H](OC)/C=C\C=C(/C)C(=O)NC(=CC1=O)C2=O [GELDANAMYCIN]
- IC50 (SK-BR-3 [27]): 0.004 µM
- IC50 (MCF7 [3]): 0.011 µM

Compound: CCCCCCCCC(=O)NCc1ccc(O)c(OC)c1 [NONIVAMIDE]
- IC50 (MCF7 [5]): 2240 µM

Compound: C=CCc1cccc(/C=N/NC(=O)CN2CCN(Cc3ccccc3)CC2)c1O [PAC-1]
- IC50 (HL-60): 0.92 µM
- IC50 (MCF7 [3]): > 75 µM
- IC50 (NCI-H226): 0.35 µM

Compound: C=CCc1ccc2c(c1)OCO2 [SAFROLE]
- EC50 [28]: 450 µM
- Activity [29]: 50%

Compound: C=CCNC1=C2C[C@@H](C)C[C@H](OC)[C@H](O)[C@@H](C)/C=C(\C)[C@H](OC(N)=O)[C@@H](OC)/C=C\C=C(/C)C(=O)NC(=CC1=O)C2=O [TANESPIMYCIN]
- IC50 (SK-BR-3 [27]): 0.004 µM
- IC50 (MCF7 [3]): 0.005 µM
